Results reported in US20250025445A1, “METHOD OF CARDIOPROTECTION” (Race Oncology LTD., priority 2021, published 2025).

Tested on: MCF7 breast cancer cells
Assay: MCF7 breast cancer cell viability (CellTiter-Glo)
Assay type: cell-based, human
Conditions: 72 hours
Method: Human breast adenocarcinoma (MCF7) cells were purchased from In Vitro Technologies (Victoria, Australia) and cultured according to manufacturer's recommendations using MCF7 growth media, Low glucose Dulbecco's Modified Eagle's medium (DMEM; Sigma-Aldrich, Australia) supplemented with 10% (v/v) foetal calf serum (Sigma-Aldrich) and 1% (v/v) Penicillin-Streptomycin (Sigma-Aldrich). Briefly, 1×10^6 MCF7 were seeded and grown in Corning® T75 flasks (Sigma-Aldrich) in an incubator at 37° C. under 5% CO2 conditions. At 80-90% confluency, MCF7 were washed with Dulbecco's Phosphate Buffered Saline (Sigma-Aldrich) for 30s at room temperature and followed by incubation with Trypsin-EDTA (Sigma-Aldrich) for 5 mins at 37° C. under 5% CO2 conditions. Trypsin solution was then neutralised with 1:1 volume of MCF7 growth media. The cell suspensions were then collected into Corning® 50 mL centrifuge tubes (Sigma-Aldrich) and centrifuged at 300×g for 10 mins at room temperature. The resulting supernatants were discarded and MCF7 pellets were resuspended with 5-10 mL of pre-warmed MCF7 growth media. Total viable cells were enumerated with Invitrogen™ Countess Cell Counter (Thermo Fisher Scientific, New South Wales, Australia) and 9×10^4 live MCF7 were seeded in triplicate into Corning® 96-well white polystyrene microplate (Sigma).
Dox, Dauno and Epi, were dissolved in sterile water to make a stock concentration of 20 mM, respectively, while Tz was dissolved in sterile PBS to a stock concentration of 100 μM. […] The concentrations were as follows 0 nM, 15.62 nM, 62.5 nM, 250 nM, 500 nM, 1 μM, 5 μM, and 10 μM. […] Vehicle controls were incubated with media supplemented with either sterile water or DMSO. […] This was repeated at 48 hours and 72 hours. […] Both FB23/2 and brequinar (MedChemExpress) were dissolved in dimethyl sulfoxide (DMSO; Sigma-Aldrich) to make a stock concentration of 40 mM and 20 mM respectively.

C(=NNC1=NCCN1)c1c2ccccc2c(C=NNC2=NCCN2)c2ccccc12 [bisantrene, 9,10-anthracenedicarboxaldehyde bis [(4,5-dihydro-1H-imidazol-2-yl)hydrazone]]
toxicity to MCF7 breast cancer cells (0-10 μM bisantrene alone, FIG. 3): concentration-dependent toxicity
interference with toxicity of carfilzomib to MCF7 cells (0-10 μM bisantrene with 1 μM carfilzomib, FIG. 3): did not interfere with the toxicity
combined toxicity of bisantrene with doxorubicin or carfilzomib to MCF7 cells (0-10 μM bisantrene with 1 μM doxorubicin or 1 μM carfilzomib): additive toxicity
interference with toxicity of doxorubicin to MCF7 cells (0-10 μM bisantrene with 1 μM doxorubicin, FIG. 3): did not interfere with the toxicity
